In ChEMBL document CHEMBL4152250, “Antibacterial and anti-TB tat-peptidomimetics with improved efficacy and half-life” (Eur J Med Chem, 2018):
In brackets after ≈: the same amount, converted by molar mass. Numbered stars: 1 amine (or outer) side, 2 acyl side, 3 side chain; on linkers, the order of the positions; unused ones are H or OH. Square brackets hold non-standard residues; d marks the D form. Peptide text beside a SMILES is read from it. X1 = NCCCN1C[C@@H](N[*:1])C[C@H]1C(=O)[*:2]; βAla = NCCC(=O)O

Columns and labels:
[1] = tested on: Escherichia coli; assay: Antibacterial activity against Escherichia coli NCIM 2688 after 8 hrs by serial dilution method; format: functional, organism-based; details: NCIM 2688, 8 h
[2] = tested on: Pseudomonas aeruginosa; assay: Antibacterial activity against Pseudomonas aeruginosa NCIM 2036 after 8 hrs by serial dilution method; format: functional, organism-based; details: NCIM 2036, 8 h
[3] = tested on: Enterobacter sp.; assay: Antibacterial activity against Enterobacter sp. NCIM 5392 after 8 hrs by serial dilution method; format: functional, organism-based; details: NCIM 5392, 8 h
[4] = tested on: Bacillus subtilis; assay: Antibacterial activity against Bacillus subtilis NCIM 2079 after 12 hrs by serial dilution method; format: functional, organism-based; details: NCIM 2079, 12 h
[5] = tested on: Staphylococcus aureus; assay: Antibacterial activity against Staphylococcus aureus NCIM 2010 after 12 hrs by serial dilution method; format: functional, organism-based; details: NCIM 2010, 12 h
[6] = tested on: Staphylococcus epidermidis; assay: Antibacterial activity against Staphylococcus epidermidis NCIM 5270 after 12 hrs by serial dilution method; format: functional, organism-based; details: NCIM 5270, 12 h
[7] = tested on: Mycobacterium tuberculosis; assay: Antitubercular activity against dormant stage of Mycobacterium tuberculosis H37Ra ATCC 25177 after 12 days by XRMA; format: functional, organism-based; details: H37Ra ATCC 25177, 288 h
[8] = tested on: Mycobacterium tuberculosis; assay: Antitubercular activity against active stage of Mycobacterium tuberculosis H37Ra ATCC 25177 after 8 days by XRMA; format: functional, organism-based; details: H37Ra ATCC 25177, 192 h
[9] = Cytotoxicity against human HeLa cells assessed as cell viability at 1 to 10 uM after 24 hrs by MTT assay relative to control; format: cell-based; details: read-out: Activity
[10] = Drug degradation assessed as bovine pancreas chymotrypsin-mediated compound hydrolysis by measuring remaining compound levels at 10 mM measured at 0.5 hrs by RP-HPLC method; format: ADME, Bos taurus; details: cattle, read-out: Stability
[11] = Drug degradation assessed as bovine pancreas chymotrypsin-mediated compound hydrolysis by measuring remaining compound levels at 10 mM measured at 1 hr by RP-HPLC method; format: ADME, Bos taurus; details: cattle, read-out: Stability
[12] = Drug degradation assessed as bovine pancreas chymotrypsin-mediated compound hydrolysis by measuring remaining compound levels at 10 mM measured at 2 hrs by RP-HPLC method; format: ADME, Bos taurus; details: cattle, read-out: Stability
[13] = Drug degradation assessed as bovine pancreas chymotrypsin-mediated compound hydrolysis by measuring remaining compound levels at 10 mM measured at 4 hrs by RP-HPLC method; format: ADME, Bos taurus; details: cattle, read-out: Stability
[14] = Drug degradation assessed as bovine pancreas chymotrypsin-mediated compound hydrolysis by measuring remaining compound levels at 10 mM measured at 8 hrs by RP-HPLC method; format: ADME, Bos taurus; details: cattle, read-out: Stability
[15] = Drug degradation assessed as bovine pancreas chymotrypsin-mediated compound hydrolysis by measuring remaining compound levels at 10 mM measured at 12 hrs by RP-HPLC method; format: ADME, Bos taurus; details: cattle, read-out: Stability
[16] = Drug degradation assessed as bovine pancreas chymotrypsin-mediated compound hydrolysis by measuring remaining compound levels at 10 mM measured at 18 hrs by RP-HPLC method; format: ADME, Bos taurus; details: cattle, read-out: Stability
[17] = Drug degradation assessed as bovine pancreas chymotrypsin-mediated compound hydrolysis by measuring remaining compound levels at 10 mM measured at 24 hrs by RP-HPLC method; format: ADME, Bos taurus; details: cattle, read-out: Stability
[18] = Drug degradation assessed as bovine pancreas chymotrypsin-mediated compound hydrolysis by measuring compound half life at 10 mM by RP-HPLC method; format: ADME, Bos taurus; details: cattle
[19] = Drug degradation assessed as pepsin (unknown origin)-mediated compound hydrolysis by measuring remaining compound levels at 0.5 hrs by RP-HPLC method; format: ADME; details: human, read-out: Stability
[20] = Drug degradation assessed as pepsin (unknown origin)-mediated compound hydrolysis by measuring remaining compound levels at 1 hr by RP-HPLC method; format: ADME; details: human, read-out: Stability
[21] = Drug degradation assessed as pepsin (unknown origin)-mediated compound hydrolysis by measuring remaining compound levels at 2 hrs by RP-HPLC method; format: ADME; details: human, read-out: Stability
[22] = Drug degradation assessed as pepsin (unknown origin)-mediated compound hydrolysis by measuring remaining compound levels at 4 hrs by RP-HPLC method; format: ADME; details: human, read-out: Stability
[23] = Drug degradation assessed as pepsin (unknown origin)-mediated compound hydrolysis by measuring remaining compound levels at 8 hrs by RP-HPLC method; format: ADME; details: human, read-out: Stability
[24] = Drug degradation assessed as pepsin (unknown origin)-mediated compound hydrolysis by measuring remaining compound levels at 12 hrs by RP-HPLC method; format: ADME; details: human, read-out: Stability
[25] = Drug degradation assessed as pepsin (unknown origin)-mediated compound hydrolysis by measuring remaining compound levels at 18 hrs by RP-HPLC method; format: ADME; details: human, read-out: Stability
[26] = Drug degradation assessed as pepsin (unknown origin)-mediated compound hydrolysis by measuring remaining compound levels at 24 hrs by RP-HPLC method; format: ADME; details: human, read-out: Stability

Row | SMILES | IC50 [1] | MIC [1] | IC50 [2] | MIC [2] | IC50 [3] | MIC [3] | IC50 [4] | MIC [4] | IC50 [5] | MIC [5] | IC50 [6] | MIC [6] | IC50 [7] | IC50 [8] | viability at 24 h, up to 10 µM [9] | other results
1 | CC(=O)N[C@@H](Cc1ccccc1)C(=O)NCC(=O)N[C@H]1C[C@@H](C(=O)N[C@@H](CCCCN)C(=O)N[C@@H](CCCCN)C(=O)N[C@@H](CCCNC(=N)N)C(=O)N[C@H]2C[C@@H](C(=O)N[C@@H](CCC(N)=O)C(=O)N[C@@H](CCCNC(=N)N)C(=O)N[C@@H](CCCNC(=N)N)C(=O)N[C@H]3C[C@@H](C(=O)NCCC(N)=O)N(CCCN)C3)N(CCCN)C2)N(CCCN)C1 (Ac-FG[X1]KKR[X1]QRR[X1][βAla]-NH2) | 0.0165 µM | 3.52 µM (≈ 5.97 µg/mL) | 0.0082 µM | 2.32 µM (≈ 3.93 µg/mL) | 0.0124 µM | 4.65 µM (≈ 7.88 µg/mL) | 0.0124 µM | 4.16 µM (≈ 7.05 µg/mL) | 0.0106 µM | 3.02 µM (≈ 5.12 µg/mL) | 0.033 µM | 7.25 µM (≈ 12.3 µg/mL) | 2.24 µM | 4.5 µM | ≥ 80% | MIC [7]: 26.3 µM (≈ 44.6 µg/mL); MIC [8]: 43 µM (≈ 72.9 µg/mL)
2 | CC(=O)N[C@@H](Cc1ccccc1)C(=O)NCC(=O)N[C@@H](CCCNC(=N)N)C(=O)N[C@@H](CCCCN)C(=O)N[C@@H](CCCCN)C(=O)N[C@@H](CCCNC(=N)N)C(=O)N[C@@H](CCCNC(=N)N)C(=O)N[C@@H](CCC(N)=O)C(=O)N[C@@H](CCCNC(=N)N)C(=O)N[C@@H](CCCNC(=N)N)C(=O)N[C@@H](CCCNC(=N)N)C(N)=O | 0.0101 µM | 6.27 µM (≈ 9.94 µg/mL) | 0.0265 µM | 7.46 µM (≈ 11.8 µg/mL) | 0.024 µM | 21.6 µM (≈ 34.2 µg/mL) | 0.012 µM | 3.34 µM (≈ 5.29 µg/mL) | 0.0113 µM | 9.91 µM (≈ 15.7 µg/mL) | 0.0069 µM | 5.78 µM (≈ 9.16 µg/mL) | 40 µM | > 60 µM | ≥ 80% | remaining at 0.5 h, 10000 µM [10]: 86.7%; remaining at 1 h, 10000 µM [11]: 86%; remaining at 2 h, 10000 µM [12]: 84.6%; remaining at 4 h, 10000 µM [13]: 82.6%; remaining at 8 h, 10000 µM [14]: 79.6%; remaining at 12 h, 10000 µM [15]: 78.2%; remaining at 18 h, 10000 µM [16]: 75.1%; remaining at 24 h, 10000 µM [17]: 15.9%; half-life at 10000 µM [18]: 4 h; remaining at 0.5 h [19]: 94.6%; remaining at 1 h [20]: 94.2%; remaining at 2 h [21]: 93.1%; remaining at 4 h [22]: 93%; remaining at 8 h [23]: 90.6%; remaining at 12 h [24]: 89%; remaining at 18 h [25]: 82.1%; remaining at 24 h [26]: 80.6%
